# Key:
# [1] = test system: HSF1 regulated genes; experiment: Example 2 in vivo pharmacodynamic study via subcutaneous dosing, cortex: expression of genes upregulated by HSF1 activation; design: species or system mouse; conditions: for Dlg4 gene induction / Dnajba gene induction / Hspa1a gene induction / Hspa8 gene induction / Syn1 gene induction: wildtype mouse cortex, 5 mg/kg s.c. once daily 7 days, compared to Gapdh
# Method: Wildtype mice (3 per group) were dosed subcutaneously at 0, 0.5, 1.5, 5 and 10 mg/kg (6aS)-6-methyl-5,6,6a,7-tetrahydro-4H-dibenzo[de,g]quinoline-10,11-diol hydrochloride for 7 days once daily. One animal in the 10 mg/kg dosing group was actually dosed 15 mg/kg on Day 1. To prepare the dosing solutions, (6aS)-6-methyl-5,6,6a,7-tetrahydro-4H-dibenzo[de,g]quinoline-10,11-diol was pre-weighed into bijous and stored in foil.
# [2] = test system: TDP-43^Q331K mouse model; experiment: Example 4 accelerating rotarod test; type: in vivo; conditions: TDP-43^Q331K mice, 5 mg/kg once daily s.c., one time point (19 weeks of age)
# Method: (§1) Following genotyping, transgenic females were block randomized into three different dosing groups: vehicle once daily, 2.5 mg/kg (6aS)-6-methyl-5,6,6a,7-tetrahydro-4H-dibenzo[de,g]quinoline-10,11-diol twice daily and 5 mg/kg (6aS)-6-methyl-5,6,6a,7-tetrahydro-4H-dibenzo[de,g]quinoline-10,11-diol once daily. The doses were selected based on results of previous internal studies. Animals were weighed daily before dosing and dosed subcutaneously at 10 ml/kg with a solution of 0.5 mg/ml (6aS)-6-methyl-5,6,6a,7-tetrahydro-4H-dibenzo[de,g]quinoline-10,11-diol for the 5 mg/kg dose and 0.25 mg/ml for the 2.5 mg/kg dose. Where animals were dosed twice a day, the doses were at least 6 hours apart and the dosing solution was freshly made for the second dose of the day.
# The study was designed with two main cohorts of mice. One cohort was dosed from 25 days of age until 6 months of age and mice had behavioral testing throughout the study and consisted of 14 mice per group. […]
# Mice were tested on the accelerating rotarod (Jones & Roberts for mice, model 7650) once a week from 40 days of age until the end of the study. […] Mice are placed on the rotarod and the time taken to fall from the rotarod (latency to fall) is recorded. For each day of testing, each mouse was tested twice on the rotarod with a small rest in between trials and the best result from the two trials is recorded. […]
# [3] = test system: TDP-43^Q331K mouse model; experiment: Example 4 catwalk gait analysis; type: in vivo; conditions: TDP-43^Q331K mice
# Method: as §1
# (§2) The study was designed with two main cohorts of mice. One cohort was dosed from 25 days of age until 6 months of age and mice had behavioral testing throughout the study and consisted of 14 mice per group. The other satellite cohort was dosed from 25 days of age until 3 months of age, with no behavioral testing and consisted of 6 mice per group for target engagement and histological assessment. Behavioral tests that were carried out during the experiment were: accelerated rotarod test, gait analysis, and electrophysiology.
# Gait analysis was carried out at 3 months and 6 months of age using the catwalk gait analysis system 7.1 (Noldus Information Technology B.V., Netherlands) and analyzed using Catwalk software 7.1. The software calculated many different gait parameters such as stride length, base of support (BOS) and swing time as well as step patterns and percentage of time spent on 2, 3 or 4 paws.
# On the day of the test mice were placed on the glass runway and allowed to run freely back and forth. About 6 straight, consistent runs were recorded by the camera for each mouse. The 3 best runs with the closest total run time were selected for each mouse for analysis. For these three runs, the paw prints were labelled in successive frames using the software, which then analyzed multiple gait parameters for each of the runs. Using Excel, the average of all three runs per mouse was calculated, followed by the average per group for each of the gait parameters.
# Gait analysis was performed using the catwalk system (Noldus) at both 3 and 6 months of age in 8 mice per group per timepoint. Traditionally in this model, the base of support increases with age, as shown in FIG. 9-13, represented the waddling or ‘swimming’ gait described in this strain.
# [4] = test system: Nrf2 and HSF1 target genes; experiment: Example 4 target engagement qPCR of cortex tissue; type: in vivo, mouse; conditions: normalized to Gapdh
# Method: This in vivo pharmacology study was designed to test the efficacy of (6aS)-6-methyl-5,6,6a,7-tetrahydro-4H-dibenzo[de,g]quinoline-10,11-diol on the progression of motor and cognitive decline in the TDP-43^Q331K mouse model. In addition, tissue was collected at the end of the experiment for target engagement (gene expression) analysis of Nrf2 and HSF1 target genes.
# as §1, §2
# Tissue was collected at 24 hours after the final morning dose. All animals were overdosed with an intraperitoneal injection of pentibarital (JML, M042) at the time of tissue collection (2.5 ml/kg). In the 6 month cohort (n=14), 7 animals per group were perfused to fix tissue for histology. For these animals, once animals had lost pedal reflex, the chest cavity was opened and 10 ml of PBS was perfused via the heart, followed by 10 ml of 4% PFA. Brain and spinal cord were extracted and stored in 4% PFA overnight before being changed to PBS. The lumbar section of the spinal cord was dissected and embedded. For the remaining 7 animals per group, once the animals had lost pedal reflex, blood was extracted via a cardiac puncture technique. The blood was collected and stored in 1 ml of RNALater (ThermoFisher). Spinal cords were removed and the upper section of spinal cord was snap frozen in liquid nitrogen for protein analysis, while the lower section was stored in RNALater and stored at −20° C. Cortex was removed and dissected into four parts, the front left segment was stored in RNALater, while the three other sections were snap frozen in liquid nitrogen.
# For the 3 month cohort, tissue was collected in a similar way to the snap frozen tissue for 6 month cohort, however where tissue was stored in RNALater for the 6 month cohort, it was processed for RNA extraction immediately in the 3 month cohort.
# RNA was extracted from lower spinal cord and cortex using the RNeasy lipid tissue mini kit (Qiagen, 74804) following the manufactures protocol. Briefly tissue was homogenized in a small volume (150 μl) of QIAzol using a hand-held homogenizer in a fume hood. Once homogenized, the total volume of QIAzol was increased to 1 ml. Samples were incubated at room temperature for 5 minutes after which 200 μl of chloroform (Honeywell) was added and samples were shaken vigorously for 15 seconds. Mixed samples were then incubated at room temperature for 3 minutes then centrifuged at 12,000g for 15 minutes at 4° C. in a bench top microcentrifuge.
# The upper aqueous phase of the sample was transferred to a fresh labelled tube and 1 volume of 70% ethanol was added. Samples were vortexed and 700 μl of sample was transferred to RNeasy mini spin columns attached to 2 ml collection tubes. […]
# [5] = 3 months, 2.5 mg/kg dosing group
structure (smiles),measurement,setting,value
"CN1CCc2cccc3c2[C@@H]1Cc1ccc(O)c(O)c1-3 [(6aS)-6-methyl-5,6,6a,7-tetrahydro-4H-dibenzo[de,g]quinoline-10,11-diol]",dose at which HSF1 regulated genes are activated,"[1]; mice, s.c. once daily 7 days, Example 2",≥ 0.5 mg/kg
same,Dlg4 gene induction,[1]; 6 hours post final dose,1.46 fold
same,Dnajba gene induction,[1]; 6 hours post final dose,1.31 fold
same,Hspa1a gene induction,[1]; 6 hours post final dose,1.84 fold
same,Hspa8 gene induction,[1]; 6 hours post final dose,1.56 fold
same,Syn1 gene induction,[1]; 6 hours post final dose,1.68 fold
same,Dlg4 gene induction,[1]; 24 hours post final dose,0.90 fold
same,Dnajba gene induction,[1]; 24 hours post final dose,1.17 fold
same,Hspa1a gene induction,[1]; 24 hours post final dose,2.25 fold
same,Hspa8 gene induction,[1]; 24 hours post final dose,2.62 fold
same,Syn1 gene induction,[1]; 24 hours post final dose,1.47 fold
same,rotarod performance (latency to fall) compared to vehicle dosed animals,[2],significant increase
same,"gait parameters (time spent on diagonal paws, on three or four paws) from 3 to 6 months",[3]; 2.5 mg/kg dosing group,relatively stable
same,"change in percentage of time spent on 3 paws between 3 months and 6 months of age, compared to vehicle",[3]; 2.5 mg/kg twice daily,significant decrease
same,change in percentage of time spent on diagonal paws between 3 months and 6 months of age,"[3]; 2.5 mg/kg twice daily, significant difference to vehicle, which has a decrease",slight increase
same,"gait parameters (time spent on diagonal paws, on three or four paws) from 3 to 6 months",[3]; 5 mg/kg dosing group,relatively stable
same,effect on swimming gait (base of support increasing with age),[3]; 3 and 6 months of age,did not limit this swimming gait
same,GSR relative mRNA level compared to vehicle,[4]; [5],upregulation
same,Nqo1 relative mRNA level compared to vehicle,[4]; [5],upregulation
same,Osgin1 relative mRNA level compared to vehicle,[4]; [5],upregulation
same,GSR relative mRNA level compared to vehicle,"[4]; 3 months, 5 mg/kg dosing group",significant upregulation
same,Hspa1a relative mRNA level compared to vehicle,"[4]; 3 months, 5 mg/kg dosing group",significant upregulation
same,Nqo1 relative mRNA level compared to vehicle,"[4]; 3 months, 5 mg/kg dosing group",significant upregulation
same,Sqstm1 relative mRNA level compared to vehicle,"[4]; 3 months, 5 mg/kg dosing group",significant upregulation
same,Hspa1a relative mRNA level compared to vehicle,"[4]; 6 months, 2.5 mg/kg twice daily",significant upregulation
same,Hspa1a relative mRNA level compared to vehicle,"[4]; 6 months, 5 mg/kg daily",significant upregulation
